Laboratory results taken from the supplement of paper PMC10307832.

Columns and labels:
Assay in all cases: relative viability (nuclei count vs DMSO), 5 days (fraction); higher = more cells survive
[1] = compound: O=C(Nc1cccc(C(F)(F)F)c1)Nc1cc(S(=O)(=O)NC2CC2)ccc1-c1ccsc1 [AGI-6780] + CS(=O)(=O)N1CCN(Cc2cc3nc(-c4cccc5[nH]ncc45)nc(N4CCOCC4)c3s2)CC1 [Pictilisib] (partner 1 µM)
How it was run: (§1)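 Lung cancer cell lines in 1536-well plates were dosed by pin tool the day after seeding, either with one drug alone or with a fixed anchor-drug dose plus five library-drug doses (not always all listed) in √10 steps. After 5 days, cells were fixed and their nuclei stained in one step (final 0.05% Triton X-100, 1% formaldehyde, 1 ug/ml Hoechst), then counted on 4× images. Relative viability is the nuclei count in treated wells divided by that in vehicle wells. Values are medians of duplicate plates.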

[2] = compound: O=C(Nc1cccc(C(F)(F)F)c1)Nc1cc(S(=O)(=O)NC2CC2)ccc1-c1ccsc1 [AGI-6780] + Cc1nc(NC(=O)N2CCC[C@H]2C(N)=O)sc1-c1ccnc(C(C)(C)C(F)(F)F)c1 [Alpelisib] (partner 2 µM)
How it was run: as §1

[3] = compound: O=C(Nc1cccc(C(F)(F)F)c1)Nc1cc(S(=O)(=O)NC2CC2)ccc1-c1ccsc1 [AGI-6780] + NC(=O)Nc1cc(-c2cccc(F)c2)sc1C(=O)N[C@H]1CCCNC1 [AZD7762] (partner 0.2 µM)
How it was run: as §1

[4] = compound: O=C(Nc1cccc(C(F)(F)F)c1)Nc1cc(S(=O)(=O)NC2CC2)ccc1-c1ccsc1 [AGI-6780] + N=C(N)NC(=N)NCCc1ccccc1 [Phenformin] (partner 250 µM)
How it was run: as §1

| Cell Line | relative viability ([1]; first compound 0.08 µM) | relative viability ([1]; first compound 0.253 µM) | relative viability ([1]; first compound 0.8 µM) | relative viability ([1]; first compound 2.53 µM) | relative viability ([1]; first compound 8 µM) | relative viability ([2]; first compound 0.08 µM) | relative viability ([2]; first compound 0.253 µM) | relative viability ([2]; first compound 0.8 µM) | relative viability ([2]; first compound 2.53 µM) | relative viability ([2]; first compound 8 µM) | relative viability ([3]; first compound 0.08 µM) | relative viability ([3]; first compound 0.253 µM) | relative viability ([3]; first compound 0.8 µM) | relative viability ([3]; first compound 2.53 µM) | relative viability ([3]; first compound 8 µM) | relative viability ([4]; first compound 0.08 µM) | relative viability ([4]; first compound 0.253 µM) | relative viability ([4]; first compound 0.8 µM) | relative viability ([4]; first compound 2.53 µM) | relative viability ([4]; first compound 8 µM) |
| --- | --- | --- | --- | --- | --- | --- | --- | --- | --- | --- | --- | --- | --- | --- | --- | --- | --- | --- | --- | --- |
| NCI-H1651 | 0.547 | 0.673 | 0.495 | 0.509 | 0.511 | 0.9 | 0.963 | 0.931 | 0.736 | 0.886 | 0.42 | 0.495 | 0.463 | 0.518 | 0.434 | 0.331 | 0.362 | 0.394 | 0.335 | 0.37 |
| NCI-H1666 | 0.332 | 0.472 | 0.421 |  | 0.567 | 1.08 | 0.876 | 1.01 |  | 0.927 | 0.809 | 0.977 | 0.842 | 0.926 | 0.898 | 0.51 | 0.573 | 0.534 | 0.554 | 0.618 |
| NCI-H1734 | 0.528 | 0.479 | 0.419 |  | 0.447 | 0.752 | 0.705 | 0.671 |  | 0.733 | 0.634 | 0.589 | 0.618 | 0.451 | 0.606 | 0.395 | 0.427 | 0.45 | 0.305 | 0.377 |
| NCI-H1755 | 0.445 | 0.467 | 0.408 | 0.368 | 0.441 | 0.991 | 0.936 | 0.948 | 0.83 | 0.898 | 0.478 | 0.417 | 0.485 | 0.419 | 0.435 | 0.637 | 0.683 | 0.611 | 0.576 | 0.633 |
| NCI-H1792 | 0.302 | 0.279 | 0.281 | 0.245 | 0.242 | 0.763 | 0.677 | 0.693 | 0.702 | 0.558 | 1.05 | 0.596 | 0.769 |  | 0.752 | 0.159 | 0.279 | 0.195 | 0.241 | 0.345 |
| NCI-H1793 | 0.272 | 0.364 | 0.351 | 0.344 | 0.303 | 0.744 | 0.831 | 0.943 | 0.562 | 0.675 | 0.747 | 0.517 | 0.703 | 0.36 | 0.409 | 0.458 | 0.406 | 0.386 | 0.264 | 0.365 |
| NCI-H1915 | 1.02 | 1.04 | 0.976 | 0.855 | 1.03 | 1.02 | 0.963 | 1.04 | 0.992 | 1.04 | 0.715 | 0.713 | 0.729 | 0.637 | 0.698 | 0.37 | 0.371 | 0.369 | 0.374 | 0.376 |
| NCI-H1944 | 0.358 | 0.366 | 0.386 | 0.323 | 0.381 | 0.862 | 0.886 | 0.821 | 0.7 | 0.767 | 0.538 | 0.516 | 0.515 |  | 0.55 | 0.212 | 0.215 | 0.213 |  | 0.217 |
| NCI-H1975 | 0.315 | 0.3 | 0.31 | 0.244 | 0.26 | 0.71 | 0.62 | 0.653 | 0.526 | 0.523 | 0.662 | 0.848 | 0.821 | 0.653 | 0.711 | 0.437 | 0.427 | 0.41 |  | 0.395 |
| NCI-H1993 | 0.0371 | 0.802 | 0.854 | 0.661 | 0.82 | 0.788 | 0.675 | 0.736 | 0.653 | 0.693 | 0.681 | 1.05 | 1.01 |  | 0.928 | 0.419 | 0.51 | 0.495 | 0.499 | 0.54 |
| NCI-H2085 | 0.468 | 0.541 | 0.48 | 0.404 | 0.491 | 0.965 | 0.978 | 0.976 | 0.949 | 0.885 | 1.07 | 1 | 0.995 | 1.06 | 1 | 0.728 | 0.836 | 0.736 | 0.716 | 0.707 |
| NCI-H2087 | 0.787 | 0.914 | 0.879 | 0.644 | 0.773 | 1.17 | 1.1 | 1.15 | 0.983 | 1.14 | 1.42 | 1.43 | 1.34 | 1.64 | 1.47 | 0.5 | 0.502 | 0.471 | 0.438 | 0.492 |
| NCI-H2126 | 0.484 | 0.573 | 0.496 | 0.44 | 0.493 | 0.812 | 0.72 | 0.767 | 0.696 | 0.741 | 1.03 | 1.08 | 0.989 | 0.97 | 1.08 | 0.543 | 0.568 | 0.539 | 0.526 | 0.539 |
| NCI-H2170 | 0.348 | 0.358 | 0.328 |  | 0.303 | 0.813 | 0.838 | 0.86 |  | 0.772 | 0.803 | 0.904 | 0.987 |  | 0.827 | 0.413 | 0.459 | 0.631 | 0.422 | 0.403 |
| NCI-H2347 | 0.747 | 0.648 | 0.591 | 0.553 | 0.897 | 1 | 0.954 | 0.691 | 1 | 1.13 | 0.766 | 0.78 | 0.538 | 0.867 | 0.929 | 0.424 | 0.574 | 0.378 | 0.351 | 0.373 |
| NCI-H2405 | 0.411 | 0.467 | 0.262 |  | 0.53 | 0.895 | 0.824 | 0.506 |  | 0.767 |  | 0.725 | 0.603 | 0.752 | 0.658 | 0.431 | 0.381 | 0.279 | 0.339 | 0.382 |
| NCI-H3122 | 0.584 | 0.563 | 0.625 | 0.548 | 0.62 | 0.876 | 0.859 | 0.892 | 0.633 | 0.822 | 0.983 | 1.08 | 1 | 0.91 | 1.05 | 0.326 | 0.378 | 0.421 | 0.399 | 0.36 |
